Data published in patent US12371454B2, “Cyclic peptide compound having Kras inhibitory action” (priority 2019, dated 2025).
pIC50: −log10 of the molar value. Positions of bridges follow the written chain, without caps; N, C: chain ends. Non-standard residues stand in square brackets, D forms with d. Residues, ends and D or L forms follow the SMILES beside them. *: point of attachment. hPhe(3-Cl-4-CF3) = N[C@@H](CCc1ccc(C(F)(F)F)c(Cl)c1)C(=O)O; hPhe(3-F,4-CF3) = N[C@@H](CCc1ccc(C(F)(F)F)c(F)c1)C(=O)O; Phe(3,5-Cl2) = N[C@@H](Cc1cc(Cl)cc(Cl)c1)C(=O)O; NEtPhe(4-Cl) = CCN[C@@H](Cc1ccc(Cl)cc1)C(=O)O; NMePhe(4-Cl) = CN[C@@H](Cc1ccc(Cl)cc1)C(=O)O; NMePhe(4-Me) = CN[C@@H](Cc1ccc(C)cc1)C(=O)O; NMePhe(2-Cl) = CN[C@@H](Cc1ccccc1Cl)C(=O)O; hPhe(4-Cl) = N[C@@H](CCc1ccc(Cl)cc1)C(=O)O; NMeGly(cPent) = CN[C@H](C(=O)O)C1CCCC1; Phe(2-OMe) = COc1ccccc1C[C@H](N)C(=O)O; Phe(3-I) = N[C@@H](Cc1cccc(I)c1)C(=O)O; NMe3Pal = CN[C@@H](Cc1cccnc1)C(=O)O; NMeGly(cBu) = CN[C@H](C(=O)O)C1CCC1; NMeCha = CN[C@@H](CC1CCCCC1)C(=O)O; Ala(cPr) = N[C@@H](CC1CC1)C(=O)O; NMeChg = CN[C@H](C(=O)O)C1CCCCC1; NMeT = CN[C@H](C(=O)O)[C@@H](C)O; hPhe = N[C@@H](CCc1ccccc1)C(=O)O; N(CH2CH2)2CF2 = FC1(F)CCN(*)CC1; NMeD = CN[C@@H](CC(=O)O)C(=O)O; NMeL = CN[C@@H](CC(C)C)C(=O)O; Cba = N[C@@H](CC1CCC1)C(=O)O; NMeV = CN[C@H](C(=O)O)C(C)C; d(β3hA) = C[C@@H](N)CC(=O)O; NMeA = CN[C@@H](C)C(=O)O; NMeAib = CNC(C)(C)C(=O)O; Nle = CCCC[C@H](N)C(=O)O; Piperidide = C1CCN(*)CC1; Pyrrolidide = C1CCN(*)C1; Ac5c = NC1(C(=O)O)CCCC1; Aze = O=C(O)[C@@H]1CCN1; Thp = NC1(C(=O)O)CCOCC1; Abu = CC[C@H](N)C(=O)O; Aib = CC(C)(N)C(=O)O; Sar = CNCC(=O)O

Target: T1, Kras and SOS1 (biotin-tagged human Kras loaded with GDP, His-tagged human SOS1) (Homo sapiens, UniProt P01116, G12D)
T1 construct: made in house; host or cells: E. coli (stated for Kras only)
Experiment: Protein-protein interaction inhibition between Kras and SOS1 (KrasGl2D-SOS PPI) using AlphaScreen
Format: binding
Conditions: AlphaScreen; biotin-tagged human Kras loaded with GDP, His-tagged human SOS1; read-out: KRAS G12D-SOS PPI IC50
In short: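 AlphaScreen format: Ni donor beads capture His-SOS1, streptavidin acceptor beads capture biotinylated Kras (E. coli-expressed, GDP-loaded post-purification). Excite 680 nm, read 520-620 nm.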

T1 sequence (P01116 1-188 isoform P01116-2 G12D): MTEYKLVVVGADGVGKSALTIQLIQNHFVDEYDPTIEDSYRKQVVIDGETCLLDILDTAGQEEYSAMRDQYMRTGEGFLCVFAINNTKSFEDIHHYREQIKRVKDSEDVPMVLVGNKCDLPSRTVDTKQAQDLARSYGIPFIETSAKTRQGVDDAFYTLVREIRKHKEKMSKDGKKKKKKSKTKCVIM

| SMILES | pIC50 |
| --- | --- |
| CC[C@H](C)[C@@H]1NC(=O)[C@H](CC(C)C)N(C)C(=O)C[C@@H](C(=O)N2CCCCC2)NC(=O)[C@H](C(C)C)N(C)C(=O)C2(CCCC2)NC(=O)[C@@H]2CCCN2C(=O)[C@H](CCc2ccc(C(F)(F)F)c(Cl)c2)NC(=O)CN(C)C(=O)[C@H](CC2CCCCC2)N(C)C(=O)CN(C)C(=O)CN(C)C1=O [Compound 417] ([NMeL]I[Sar][Sar][NMeCha][Sar][hPhe(3-Cl-4-CF3)]P[Ac5c][NMeV]D-Piperidide; lactam N-11) | 7.82 |
| CC[C@H](C)[C@@H]1NC(=O)[C@H](C(C)C)N(C)C(=O)C[C@@H](C)NC(=O)[C@H](CC(C)C)N(C)C(=O)C2(CCCC2)NC(=O)[C@H](CC(C)C)N(C)C(=O)[C@H](CCc2ccc(C(F)(F)F)c(F)c2)NC(=O)CN(C)C(=O)[C@H](Cc2ccc(Cl)cc2)N(C)C(=O)[C@@H]2CCN2C(=O)CN(C)C1=O [Compound 418] (cyclo([Ac5c][NMeL][d(β3hA)][NMeV]I[Sar][Aze][NMePhe(4-Cl)][Sar][hPhe(3-F,4-CF3)][NMeL])) | 7.77 |
| CC(C)C[C@H]1C(=O)N[C@@H](CC2CC2)C(=O)N(C)CC(=O)N(C)CC(=O)N(C)[C@@H](CC2CCCCC2)C(=O)N(C)CC(=O)N[C@@H](CCc2ccc(C(F)(F)F)c(Cl)c2)C(=O)N2CCC[C@H]2C(=O)NC2(CCCC2)C(=O)N(C)[C@@H](C(C)C)C(=O)N(C)[C@H](C(=O)N2CCCCC2)CC(=O)N1C [Compound 421] ([NMeL][Ala(cPr)][Sar][Sar][NMeCha][Sar][hPhe(3-Cl-4-CF3)]P[Ac5c][NMeV][NMeD]-Piperidide; lactam N-11) | 8.00 |
| CCCC[C@@H]1NC(=O)[C@H](Cc2cccc(I)c2)NC(=O)CN(C)C(=O)[C@H](Cc2ccc(Cl)cc2)N(CC)C(=O)CN(C)C(=O)CN(C)C(=O)[C@H]([C@@H](C)CC)NC(=O)[C@H](CC(C)C)N(C)C(=O)C[C@@H](C(=O)N2CCCCC2)N(C)C(=O)[C@H](CC(C)C)NC(=O)C(C)(C)N(C)C1=O [Compound 423] ([NMeL]I[Sar][Sar][NEtPhe(4-Cl)][Sar][Phe(3-I)][Nle][NMeAib]L[NMeD]-Piperidide; lactam N-11) | 7.19 |
| CC[C@H](C)[C@@H]1NC(=O)[C@H](C)N(C)C(=O)C[C@@H](C(=O)N2CCCC2)N(C)C(=O)[C@H](C(C)C)N(C)C(=O)C(C)(C)NC(=O)[C@H](Cc2ccccc2Cl)N(C)C(=O)[C@H](CCc2ccc(C(F)(F)F)c(Cl)c2)NC(=O)CN(C)C(=O)[C@H](CC2CCCCC2)N(C)C(=O)CN(C)C(=O)CN(C)C1=O [Compound 426] ([NMeA]I[Sar][Sar][NMeCha][Sar][hPhe(3-Cl-4-CF3)][NMePhe(2-Cl)][Aib][NMeV][NMeD]-Pyrrolidide; lactam N-11) | 8.06 |
| CC[C@H](C)[C@@H]1NC(=O)[C@H](CC(C)C)N(C)C(=O)C[C@@H](C(=O)N2CCCCC2)N(C)C(=O)[C@H](C2CCCCC2)N(C)C(=O)C2(CCCC2)NC(=O)[C@@H]2CCCN2C(=O)[C@H](CCc2ccc(C(F)(F)F)c(Cl)c2)NC(=O)CN(C)C(=O)[C@H]([C@@H](C)O)N(C)C(=O)CN(C)C(=O)CN(C)C1=O [Compound 427] ([NMeL]I[Sar][Sar][NMeT][Sar][hPhe(3-Cl-4-CF3)]P[Ac5c][NMeChg][NMeD]-Piperidide; lactam N-11) | 9.15 |
| CC[C@H](C)[C@@H]1NC(=O)[C@H](C)N(C)C(=O)C[C@@H](C)NC(=O)[C@H](C2CCCC2)N(C)C(=O)C2(CCCC2)NC(=O)[C@@H]2CCCN2C(=O)[C@H](CCc2ccc(C(F)(F)F)c(Cl)c2)NC(=O)CN(C)C(=O)[C@H](CC(C)C)N(C)C(=O)[C@@H]2CCCN2C(=O)CN(C)C1=O [Compound 429] (cyclo([Ac5c][NMeGly(cPent)][d(β3hA)][NMeA]I[Sar]P[NMeL][Sar][hPhe(3-Cl-4-CF3)]P)) | 7.00 |
| CCCC[C@@H]1NC(=O)[C@H](Cc2cc(Cl)cc(Cl)c2)NC(=O)CN(C)C(=O)[C@H](Cc2ccc(Cl)cc2)N(C)C(=O)CN(C)C(=O)CN(C)C(=O)[C@H]([C@@H](C)CC)NC(=O)[C@H](CC(C)C)N(C)C(=O)C[C@@H](C(=O)N2CCCCC2)N(C)C(=O)[C@H](CC(C)C)NC(=O)C(C)(C)N(C)C1=O [Compound 431] ([NMeL]I[Sar][Sar][NMePhe(4-Cl)][Sar][Phe(3,5-Cl2)][Nle][NMeAib]L[NMeD]-Piperidide; lactam N-11) | 6.60 |
| CC[C@H](C)[C@@H]1NC(=O)[C@H](C)N(C)C(=O)C[C@@H](C(=O)N2CCCCC2)N(C)C(=O)[C@H](C2CCCCC2)N(C)C(=O)C2(CCCC2)NC(=O)[C@H](Cc2cccnc2)N(C)C(=O)[C@H](CCc2ccc(C(F)(F)F)c(Cl)c2)NC(=O)CN(C)C(=O)[C@H](CC2CCCCC2)N(C)C(=O)[C@@H]2CCCN2C(=O)CN(C)C1=O [Compound 433] ([NMeA]I[Sar]P[NMeCha][Sar][hPhe(3-Cl-4-CF3)][NMe3Pal][Ac5c][NMeChg][NMeD]-Piperidide; lactam N-11) | 8.66 |
| CC[C@H](C)[C@@H]1NC(=O)[C@H](CC(C)C)N(C)C(=O)C[C@@H](C(=O)N2CCCCC2)N(C)C(=O)[C@H](CC(C)C)NC(=O)C(C)(C)N(C)C(=O)[C@H](CCc2ccccc2)NC(=O)[C@H](Cc2cccc(I)c2)NC(=O)CN(C)C(=O)[C@H](Cc2ccc(C)cc2)N(C)C(=O)[C@@H]2CCN2C(=O)CN(C)C1=O [Compound 442] ([NMeL]I[Sar][Aze][NMePhe(4-Me)][Sar][Phe(3-I)][hPhe][NMeAib]L[NMeD]-Piperidide; lactam N-11) | 7.15 |
| CC[C@H](C)[C@@H]1NC(=O)[C@H](CC(C)C)N(C)C(=O)C[C@@H](C(=O)N2CCCCC2)N(C)C(=O)[C@H](C(C)C)N(C)C(=O)[C@H](C)NC(=O)[C@H](CC(=O)N2CCC(F)(F)CC2)N(C)C(=O)[C@H](CCc2ccc(C(F)(F)F)c(Cl)c2)NC(=O)CN(C)C(=O)[C@H](CC2CCCCC2)N(C)C(=O)CN(C)C(=O)CN(C)C1=O [Compound 444] ([NMeL]I[Sar][Sar][NMeCha][Sar][hPhe(3-Cl-4-CF3)][NMeD](N(CH2CH2)2CF2)A[NMeV][NMeD]-Piperidide; lactam N-11) | 7.74 |
| CC[C@H](C)[C@@H]1NC(=O)[C@H](C)N(C)C(=O)C[C@@H](C(=O)N2CCCCC2)N(C)C(=O)[C@H](C(C)C)N(C)C(=O)C2(CCCC2)NC(=O)[C@@H]2CCCN2C(=O)[C@H](CCc2ccc(C(F)(F)F)c(Cl)c2)NC(=O)[C@H]2CCCN2C(=O)[C@H](CC2CCCCC2)N(C)C(=O)[C@@H]2CCN2C(=O)CN(C)C1=O [Compound 447] ([NMeA]I[Sar][Aze][NMeCha][dP][hPhe(3-Cl-4-CF3)]P[Ac5c][NMeV][NMeD]-Piperidide; lactam N-11) | 7.85 |
| CC[C@H](C)[C@@H]1NC(=O)[C@H](CC(C)C)N(C)C(=O)C[C@@H](C(=O)N2CCCCC2)N(C)C(=O)[C@H](C(C)C)N(C)C(=O)C2(CCOCC2)NC(=O)[C@@H]2CCCN2C(=O)[C@H](CCc2ccc(Cl)cc2)NC(=O)CN(C)C(=O)[C@H](CC2CCCCC2)N(C)C(=O)CN(C)C(=O)CN(C)C1=O [Compound 448] ([NMeL]I[Sar][Sar][NMeCha][Sar][hPhe(4-Cl)]P[Thp][NMeV][NMeD]-Piperidide; lactam N-11) | 7.04 |
| CC(C)C[C@H]1C(=O)N[C@@H](CC2CCC2)C(=O)N(C)CC(=O)N(C)CC(=O)N(C)[C@@H](CC2CCCCC2)C(=O)N(C)CC(=O)N[C@@H](CCc2ccc(C(F)(F)F)c(Cl)c2)C(=O)N2CCC[C@H]2C(=O)NC2(CCCC2)C(=O)N(C)[C@@H](C(C)C)C(=O)N(C)[C@H](C(=O)N2CCCCC2)CC(=O)N1C [Compound 451] ([NMeL][Cba][Sar][Sar][NMeCha][Sar][hPhe(3-Cl-4-CF3)]P[Ac5c][NMeV][NMeD]-Piperidide; lactam N-11) | 8.00 |
| CC[C@@H]1NC(=O)[C@H](Cc2cccc(I)c2)NC(=O)CN(C)C(=O)[C@H](Cc2ccc(Cl)cc2)N(C)C(=O)CN(C)C(=O)CN(C)C(=O)[C@H]([C@@H](C)CC)NC(=O)[C@H](CC(C)C)N(C)C(=O)C[C@@H](C(=O)N2CCCCC2)N(C)C(=O)[C@H](CC(C)C)NC(=O)C(C)(C)N(C)C1=O [Compound 457] ([NMeL]I[Sar][Sar][NMePhe(4-Cl)][Sar][Phe(3-I)][Abu][NMeAib]L[NMeD]-Piperidide; lactam N-11) | 7.16 |
| CC[C@H](C)[C@@H]1NC(=O)[C@H](CC(C)C)N(C)C(=O)C[C@@H](C(=O)N2CCCCC2)N(C)C(=O)[C@H](CC(C)C)NC(=O)C(C)(C)N(C)C(=O)[C@H](Cc2ccccc2OC)NC(=O)[C@H](Cc2cccc(I)c2)NC(=O)CN(C)C(=O)[C@H](Cc2ccc(C)cc2)N(C)C(=O)[C@@H]2CCN2C(=O)CN(C)C1=O [Compound 459] ([NMeL]I[Sar][Aze][NMePhe(4-Me)][Sar][Phe(3-I)][Phe(2-OMe)][NMeAib]L[NMeD]-Piperidide; lactam N-11) | 8.02 |
| CC[C@H](C)[C@@H]1NC(=O)[C@H](CC(C)C)N(C)C(=O)C[C@@H](C(=O)N2CCCCC2)N(C)C(=O)[C@H](C(C)C)N(C)C(=O)C(C)(C)NC(=O)[C@H](CC(=O)N2CCC(F)(F)CC2)N(C)C(=O)[C@H](CCc2ccc(C(F)(F)F)c(Cl)c2)NC(=O)CN(C)C(=O)[C@H](CC2CCCCC2)N(C)C(=O)CN(C)C(=O)CN(C)C1=O [Compound 463] ([NMeL]I[Sar][Sar][NMeCha][Sar][hPhe(3-Cl-4-CF3)][NMeD](N(CH2CH2)2CF2)[Aib][NMeV][NMeD]-Piperidide; lactam N-11) | 8.36 |
| CC[C@H](C)[C@@H]1NC(=O)[C@H](C2CCC2)N(C)C(=O)C[C@@H](C)NC(=O)[C@H](C(C)C)N(C)C(=O)C2(CCCC2)NC(=O)[C@@H]2CCCN2C(=O)[C@H](CCc2ccc(C(F)(F)F)c(Cl)c2)NC(=O)CN(C)C(=O)[C@H](CC2CCCCC2)N(C)C(=O)[C@@H]2CCN2C(=O)[C@H](C)N(C)C1=O [Compound 465] (cyclo([Ac5c][NMeV][d(β3hA)][NMeGly(cBu)]I[NMeA][Aze][NMeCha][Sar][hPhe(3-Cl-4-CF3)]P)) | 7.26 |
